Patent publication US4539037A, “Urease inhibited urea based fertilizer compositions containing N-aryl-N-aliphatic phosphorotriamide compounds” (Allied Corporation, priority 1983, dated 1985)

Assays:
soil urease [1] = assay: Soil urease inhibition test (urea remaining after incubation in Cazenovia sandy loam, 25° C., 3 days); assay type: biochemical; conditions: for % Inhibition 20 μmg: 20 micrograms test compound per 20 g soil
Description: The inhibition tests were run in a New York soil (Cazenovia sandy loam, pH 7.2). […] The bottle was capped with perforated aluminum foil and incubated at 25° C. for 3 days prior to extraction with 100 mL 2M KCl containing 0.5 mg phenylmercuric acetate. The extracts were then analyzed for remaining urea using an auto analyzer. Percent inhibition was calculated as
% Inhibition=[-1(A-B/A-C)]×100
where A is urea recovered from unincubated sample (urea added to soil and immediately extracted); B is urea recovered from inhibited sample; and C is urea recovered from the control (uninhibited sample).

soil urease [2] = assay: Urea hydrolyzed vs. time in soil at elevated temperature (35° C.); assay type: biochemical; conditions: soil at 35° C., 10 micrograms of urease inhibitor per gram of soil; for urease inhibiting effect at 35° C. (FIGURE, in words): sampled every two days, period of 12 days
Description: FIG. 1 is a graph of urea hydrolyzed vs. time at 35° C. using 10 micrograms of urease inhibitor per gram of soil.
Several representative N-alkyl-N-aryl phosphoric triamide compounds useful in the practice of this invention were tested to determine their relative effectiveness or urease inhibitors. The inhibition tests were run in a New York soil (Cazenovia sandy loam, pH 7.2). Evaluations (run in triplicate) consisted of applying 800 and 20 micrograms of test compound in 5 mL water and 42.8 mg urea in 1 mL water to 20 g air-dry soil in a glass bottle. The bottle was capped with perforated aluminum foil and incubated at 25° C. for 3 days prior to extraction with 100 mL 2M KCl containing 0.5 mg phenylmercuric acetate. The extracts were then analyzed for remaining urea using an auto analyzer. Percent inhibition was calculated as
Employing the procedure of EXAMPLES VII to IX a series of test were conducted to show improved efficiency of N-aliphatic-N-arylphosphoric triamides at elevated temperature as compared to the efficiency of phenylphosphorodiamidate, a prior art urease inhibitor. This test was conducted similarly to the test previously described, but soil samples were taken every two days and analyzed for urea content.

soil urease [3] = conditions: stated for a known compound; cited from earlier work
[4] = Table II, procedure of Examples VII to IX
[5] = Table II, procedure of Examples VII to IX, 800 micrograms test compound per 20 g soil

Compound	% Inhibition 20 μmg (soil urease [1]; [4])	% Inhibition 800 μmg (soil urease [1]; [5])	urease inhibiting effect at 35° C. (FIGURE, in words) (soil urease [2])	also measured
NP(N)(=O)Nc1ccccc1 [Comp II]	19%	74%	–	–
NP(N)(=O)Nc1ccc([N+](=O)[O-])cc1 [Comp I]	30%	81%	–	–
COc1ccc(N(C)P(N)(N)=O)cc1 [VIII]	–	–	–	% Inhibition 800 μmg (soil urease [1]; Table I, 800 micrograms test compound + 42.8 mg urea per 20 g air-dry soil (pH 7.2), triplicate): 47%
NP(N)(=O)Oc1ccccc1 [phenyl phosphorodiamidate]	–	–	much less effective	time to essentially complete urea hydrolysis (soil urease [2]): 6 days; urease inhibiting effect at 25° C. (in words) (soil urease [3]): excellent urease inhibiting effect
N-Methyl-N-(4-nitrophenyl) Phosphoric Triamide [IX]	–	–	excellent inhibitor	–
